{"source": "patent US4886826A", "about": "“Substituted 2,3,4,9-tetrahydro-1H-carbazole-1-acetic acid derivatives, composition and use” (American Home Products Corporation, priority 1989, dated 1989)", "key": {"[1]": {"test_system": "Freund's complete adjuvant-induced hind paw edema in rats", "assay": "Preventative Adjuvant Edema (Freund's complete adjuvant hind paw edema, acute anti-inflammatory effect)", "type": "in vivo, Male Sprague Dawley rats", "settings": "25 mg/kg, p.o.; rat; edema volume day 0 to day 3", "experimental": "This test is a primary screen for anti-inflammatory drugs.\nMale Sprague Dawley rats (180-200 g) are used. The animals have free access to water but food is withdrawn 18 hours before testing.\nFreund's complete adjuvant is prepared by suspending 5 mg of killed and dried Mycobacterium butyricum (Difco) in 1 mL liquid paraffin. The test compounds are dissolved in distilled water or suspended in 0.5% Tween 80 in distilled water according to their solubility. For primary screening all drugs are administered by gastric gavage at the arbitrary dosage of 25 mg/kg, p.o. in a volume of 0.5 mL/100 g body weight to groups of 10 animals.\nThe method is essentially that described by Wax et al, J. Pharmacol. Exp. Ther., 192, 166-171 (1975). Groups of rats are injected intradermally in the left hind paw with 0.1 mL of Freund's complete adjuvant. The test compound or vehicle is administered immediately before the adjuvant, 24 hours and 48 hours after the adjuvant (days 0, 1 and 2). The injected hind paw volume is measured before the injection of adjuvant and 24 hours after the last drug administration (day 3) by means of a plethysomometer (Buxco Electronics Inc.). The difference between the hind paw volume on day 0 and day 3 represents the edema volume. Etodolac (25 mg/kg, p.o.) is included as a positive control.\nThe mean edema volume (expressed as mL±SEM) is calculated for each group and the percentage inhibition of inflammation conferred by the drug is calculated: [formula] where c is the mean edema volume for the untreated controls and t is the mean edema volume for the drug treated group."}, "[2]": {"test_system": "Phenylbenzoquinone-induced writhing in mice", "assay": "Phenylbenzoquinone-induced Writhing in Mice (analgesic activity)", "type": "in vivo, Male Swiss albino mice", "settings": "10 mg/kg, p.o.; mouse; writhes in 15 minutes, PBQ i.p. 60 minutes after dosing", "experimental": "A further test used to determine the utility of the compounds of the present invention is designated: Drug Effects on Phenylbenzoquinone-induced Writhing in Mice.\nThe objective of this test is to determine the ability of test drugs to inhibit the nociceptive (pain) response of mice injected with a chemical irritant. This test is a primary screen for both peripherally and centrally acting analgesic drugs.\nMale Swiss albino mice (15-25 g) are used. The animals are fasted for 18 hours prior to use but have free access to water.\nDrugs are dissolved or suspended according to their solubility in 0.5% Tween 80 in distilled water. They are administered by gastric gavage in a volume of 5 mL/kg. For primary screening all drugs are administered at the arbitrary dosage of 10 mg/kg, p.o. to a group of 10 mice.\nA modification of the method of Siegmund et al., Proc. Soc. Exp. Biol. Med., 95, 729-731 (1957) is used. Groups of 5 mice are dosed with the test compound or vehicle control. Sixty minutes later the animals are injected i.p. with 0.3 mL/20 g body weight of a 0.02% solution of phenylbenzoquinone (PBQ; 2-phenyl-1,4-benzoquinone) and placed in individual observation boxes. The number of writhes or abdominal squirming movements made by each mouse during the following 15 minute period is counted. The experiment is repeated with another group of 5 mice and the mean number of writhes per mouse for a group of 10 mice is calculated.\nDrug-treated and vehicle-treated control groups are compared and the percentage protection conferred by the drug is calculated: [formula] where c=mean number of writhes in the control group where t=mean number of writhes in the test drug group"}, "[3]": {"test_system": "lipoxygenase", "assay": "Rat Polymorphonuclear Leukocyte Assay, lipoxygenase products (leukotriene B4, 5-HETE)", "type": "cell-based", "settings": "10 min, 10 μM drug concentration, minus=decrease, plus=increase relative to control (no drug), A23187-stimulated, 3H arachidonic acid", "experimental": "(§1) A test for lipoxygenase and cyclooxygenase inhibitory activity is the Rat Polymorphonuclear Leukocyte Assay. The assay is carried out as follows: glycogen-elicited rat peritoneal cells (10^7 /1.0 mL) are incubated (37° C.)±drug in a shaking water bath for 10 minutes. One micromolar (final concentration) ^3 H arachidonic acid (2.0 μCi) is then added to each sample followed by the immediate addition of 1.0 micromolar A23187* (final concentration). The cells are incubated another 10 minutes and the reaction is stopped by high-speed centrifugation. Supernatants are then analyzed by HPLC using an in-line radioactivity detector. […] Results are qualitatively expressed as a percent change (minus=decrease, plus=increase) relative to the control (no drug). [drawing 20]"}, "[4]": {"test_system": "cyclooxygenase", "assay": "Rat Polymorphonuclear Leukocyte Assay, cyclooxygenase products (thromboxane B2, prostaglandin E2)", "type": "cell-based", "settings": "10 min, 10 μM drug concentration, minus=decrease, plus=increase relative to control (no drug), A23187-stimulated, 3H arachidonic acid", "experimental": "as §1"}, "[5]": {"settings": "read-out: % change 5-HETE (5-hydroxyeicosatetraenoic acid)"}, "[6]": {"settings": "read-out: % change leukotriene B4"}, "[7]": {"settings": "read-out: % change prostaglandin E2"}, "[8]": {"settings": "read-out: % change thromboxane B2"}}, "note": "Like-named read-outs stand apart in the source and are kept apart here."}
{"smiles": "C=CC/C=C\\C[C@H]1CC[C@@](CC)(CC(=O)O)c2[nH]c3c(C)cccc3c21", "note": "(relative stereo) [Example 4, [1, 4 (Z)]-1-Ethyl-4-(2,5-hexadienyl)-2,3,4,9-tetrahydro-8-methyl-1H-carbazole-1-acetic Acid]", "values": [{"measurement": "% Inhibition", "setting": "[1]", "value": 43, "unit": "%"}, {"measurement": "% Inhibition", "setting": "[2]", "value": 23, "unit": "%"}, {"measurement": "inhibition at 10 µM", "setting": "[3]; [5]", "value": 94, "unit": "%"}, {"measurement": "inhibition at 10 µM", "setting": "[3]; [6]", "value": 94, "unit": "%"}, {"measurement": "inhibition at 10 µM", "setting": "[4]; [7]", "value": 19, "unit": "%"}, {"measurement": "inhibition at 10 µM", "setting": "[4]; [8]", "value": 88, "unit": "%"}]}
{"smiles": "C=CCCCCC1CCC(CC)(CC(=O)O)c2[nH]c3c(C)cccc3c21", "note": "(single isomer, unassigned; isomer a) [Example 3, 1-Ethyl-4-(5-hexenyl)-2,3,4,9-tetrahydro-8-methyl-1H-carbazole-1-acetic Acid (Isomer A)]", "values": [{"measurement": "% Inhibition", "setting": "[1]", "value": 19, "unit": "%"}, {"measurement": "% Inhibition", "setting": "[2]", "value": 10, "unit": "%"}]}
{"smiles": "C=CCCCCC1CCC(CC)(CC(=O)O)c2[nH]c3c(C)cccc3c21", "note": "(single isomer, unassigned; isomer b) [Example 2, 1-Ethyl-4-(5-hexenyl)-2,3,4,9-tetrahydro-8-methyl-1H-carbazole-1-acetic Acid (Isomer B)]", "values": [{"measurement": "% Inhibition", "setting": "[1]", "value": 28, "unit": "%"}, {"measurement": "% Inhibition", "setting": "[2]", "value": 0, "unit": "%"}, {"measurement": "inhibition at 10 µM", "setting": "[3]; [5]", "value": 92, "unit": "%"}, {"measurement": "inhibition at 10 µM", "setting": "[3]; [6]", "value": 95, "unit": "%"}, {"measurement": "inhibition at 10 µM", "setting": "[4]; [7]", "value": -22, "unit": "%"}, {"measurement": "inhibition at 10 µM", "setting": "[4]; [8]", "value": 80, "unit": "%"}]}
{"smiles": "C=CCCCCC1CCC(CC)(CC(=O)O)c2[nH]c3c(CC)cccc3c21", "note": "(single isomer, unassigned) [Example 1, 1,8-Diethyl-4(5-hexenyl)-2,3,4,9-tetrahydro-1H-carbazole-1-acetic Acid]", "values": [{"measurement": "% Inhibition", "setting": "[1]", "value": 0, "unit": "%"}, {"measurement": "% Inhibition", "setting": "[2]", "value": 0, "unit": "%"}, {"measurement": "inhibition at 10 µM", "setting": "[3]; [5]", "value": 92, "unit": "%"}, {"measurement": "inhibition at 10 µM", "setting": "[3]; [6]", "value": 93, "unit": "%"}, {"measurement": "inhibition at 10 µM", "setting": "[4]; [7]", "value": 31, "unit": "%"}, {"measurement": "inhibition at 10 µM", "setting": "[4]; [8]", "value": 82, "unit": "%"}]}
